Measured values from PMC12697822, “The CtrCBL1/CtrCIPK6 Complex of Citrus Phosphorylates CtrBBX32 to Regulate CtrSTP1‐Mediated Sugar Accumulation and Cold Tolerance” (Advanced Science, 2025).

System: T1, CtrSTP1
T1 construct: full CDS in pDR196, expressed in hexose/sucrose transport-deficient yeast strain CSY4000; plasma membrane hexose transporter
Assay: […]-glucose uptake in CSY4000 yeast, Eadie-Hofstee
Type: cell-based, Citrus trifoliata
Conditions: pH 5.0; 30 °C; 25 mM sodium phosphate; whole yeast cells; labelled compound; proton-coupled

Question: Which Km does the source give for `OC[C@H]1OC(O)[C@H](O)[C@@H](O)[C@@H]1O` (stereo partly shown) [glucose] here?
Answer: 101 ± 23.9 µM
